# Legend:
# [1] = not given; remark: listed apart in the source
# [2] = not given; remark: listed apart in the source
# [3] = not given; remark: listed apart in the source
# [4] = not given; remark: listed apart in the source
# [5] = not given; remark: listed apart in the source
# [6] = not given; remark: listed apart in the source
Structure (SMILES),flash point [°C],flash point [1] [°C],other results
CC(C)(CO)[C@@H](O)C(=O)NCCCO,113.00,,
CC(C)C(=O)OCC(C)(C)C(O)C(C)C (configuration not stated),120.00,,
CO[C@H]1CO[C@H]2[C@@H]1OC[C@H]2OC,103.00,,
O=C(OCC1CCC(COC(=O)c2ccccc2)CC1)c1ccccc1 (configuration not stated),161.00,,
"CCCc1cccc(C)c1C [1,2-dimethyl-3-propylbenzene]",,72,
"Cc1ccc(C(C)C)cc1C [1,2-dimethyl-4-isopropylbenzene]",,68.1,
"CCc1cc(CC)cc(CC)c1 [1,3,5-triethylbenzene]",,81.1,
"CCc1ccc(C)c(CC)c1 [1,3-diethyl-4-methylbenzene]",,72.2,
"CCc1cc(C)cc(CC)c1 [1,3-diethyl-5-methylbenzene]",,70,
"CC(C)c1cccc(C(C)C)c1 [1,3-diisopropylbenzene]",,76.8,flash point [2]: 76 °C
"Cc1ccc(C(C)C)c(C)c1 [1,3-dimethyl-4-isopropylbenzene]",,67.2,
"OC(CBr)CCBr (configuration not stated) [1,4-dibromobutan-2-ol]",113.00,,
"CCc1ccc(CC)c(C)c1 [1,4-diethyl-2-methylbenzene]",,73.0,
"CC(C)c1ccc(C(C)C)cc1 [1,4-diisopropylbenzene]",,76.1,
CC(O)CNCC(C)O (configuration not stated) [1-(2-hydroxypropylamino)propan-2-ol],126.00,,
CCCCc1ccccc1C [1-butyl-2-methylbenzene],,72.5,
O=C1CCCN1C1CCCCC1 [1-cyclohexyl-2-pyrrolidinone],145.00,,
CCCc1cccc(CC)c1 [1-ethyl-3-propylbenzene],,69.7,
Cc1ccc(CC(C)C)cc1 [1-isobutyl-4-methylbenzene],,67.4,
"CCC(C)c1ccc(C)cc1C (configuration not stated) [1-sec -butyl-2,4-dimethylbenzene]",,81.4,
CCC(C)c1cccc(C)c1 (configuration not stated) [1-sec -butyl-3-methylbenzene],,63.1,
CCC(C)c1ccc(C)cc1 (configuration not stated) [1-sec -butyl-4-methylbenzene],,65,
Cc1cccc(C(C)(C)C)c1 [1-tert -butyl-3-methylbenzene],,60.6,
CCc1ccc(C(C)(C)C)cc1 [1-tert -butyl-4-ethylbenzene],,76.0,
C=CCCCCCCCCCCC [1-tridecene],,,flash point [3]: 79 °C; flash point [2]: 80 °C; flash point [4]: 92 °C
"OCC(F)(F)F [2,2,2-trifluoroethanol]",29.00,,

Structure (SMILES),flash point [°C],flash point [1] [°C],other results
"CC(C)C(C)(C)C [2,2,3-trimethylbutane]",,,flash point [3]: -24 °C; flash point [2]: -6 °C
"CC(C)CC(C)(C)CO [2,2,4-trimethylpentan-1-ol]",60.00,,
"CCCC(C)C(C)C (configuration not stated) [2,3-dimethylhexane]",,,flash point [3]: 5 °C; flash point [2]: -3 °C
"CC(C)(O)C#CC(C)(C)O [2,5-dimethylhex-3-yne-2,5-diol]",73.90,,
NCCOCCO [2-(2-aminoethoxy)ethanol],127.00,,
C=CCOCC1CO1 (configuration not stated) [2-(allyloxymethyl)oxirane],48.00,,
CC(O)COC(C)COC(C)CO (configuration not stated) [2-[2-(2-hydroxypropoxy)propoxy]propan-1-ol],143.33,,
CCc1cc(C)ccc1C [2-ethyl-p -xylene],,56.1,
COC(C)(C)C [2-methoxy-2-methylpropane],-34.44,,
C=C(C)C [2-methylprop-1-ene],-116.00,,
CC(C)CO [2-methylpropan-1-ol],30.00,,flash point [5]: 28.00 °C
CC(C)(C)N [2-methylpropan-2-amine],-38.00,,flash point [5]: 10.00 °C
CC#CCCCCC [2-octyne],,,flash point [3]: 18 °C; flash point [2]: 28 °C; flash point [4]: 24 °C
N#Cc1ccccn1 [2-pyridinecarbonitrile],89.00,,
"C=CC(C)(C)C [3,3-dimethyl-1-butene]",,,flash point [3]: -29 °C; flash point [2]: -28 °C
"CC1CNCC(C)C1 (configuration not stated) [3,5-dimethylpiperidine]",21.50,,
"CCC(C)(O)C#CC(C)(O)CC (configuration not stated) [3,6-dimethyloct-4-yne-3,6-diol]",109.00,,
OCCCOCCCO [3-(3-hydroxypropoxy)propan-1-ol],123.89,,
C=CCNCCC[Si](OC)(OC)OC [3-(N-ALLYLAMINO)PROPYLTRIMETHOXYSILANE],,,flash point [6]: 88.00 °C
CCO[Si](CCCN)(OCC)OCC [3-AMINOPROPYLTRIETHOXYSILANE],,,flash point [6]: 104.00 °C
CO[Si](CCCN)(OC)OC [3-AMINOPROPYLTRIMETHOXYSILANE],,,flash point [6]: 83.00 °C
C[Si](C)(C)CCCN [3-AMINOPROPYLTRIMETHYLSILANE],,,flash point [6]: 59.00 °C
COCCOCCO[Si](CCCN)(OCCOCCOC)OCCOCCOC [3-AMINOPROPYLTRIS(METHOXYETHOXYETHOXY)SILANE],,,flash point [6]: 68.00 °C
Brc1cccnc1 [3-bromopyridine],51.00,,
N#Cc1cccnc1 [3-pyridinecarbonitrile],84.00,,
CCc1ccc(C)c(C)c1 [4-ethyl-o -xylene],,58.1,
